Data from US11596623B2, “Methods for treating virus infection or proliferation” (HOWARD UNIVERSITY, priority 2018, dated 2023).
Like-named read-outs stand apart in the source and are kept apart here.

Legend:
HSV1-Luc (R8411) = assay: HSV1-Luc bioluminescence luciferase assay in HEp-2 cells; type: cell-based, HSV-1; set-up: HSV-1 proliferation (luciferase signal): dose or concentration left out as unconfirmed
Protocol: (A) Hep-2 cells were incubated with the indicated compounds in the presence of HSV1-Luc virus at a concentration of 4×10^6 pfu/ml media. (B) Quantification of the luciferase signal from the samples in panel (A). Signals from three replicates from two separate experiments were combined to generate the average and the standard error bar.
(§1) To 80-90% confluent HEp-2 cells, HSV-1-Luc (R8411) are added at a concentration of 2×10e^6 pfu/ml along with indicated concentration of inhibitor compounds. After the described incubation period, luciferase activity is evaluated from bioluminescence images acquired by a Perkin Elmer IVIS Spectrum Imaging system immediately after adding luciferase substrate (D-luciferin, Gold Bio Technology) at a concentration of 400 μg/mL in medium. Bioluminescence intensity in different wells is quantified in units of photons per second per centimetre squared per steradian (p/s/cm^2/sr) by drawing a polygonal region of interest over the signals in images using Living Image 3.0 software (Caliper Life Sciences).
as §1, with “cells, HSV1-Luc” for “cells, HSV-1-Luc”, “(R8411) was” for “(R8411) are”, “activity was” for “activity is”, “wells was” for “wells is”, “per centimeter” for “per centimetre”
To visualize the effect of the drugs on the proliferation of HSV-1, a luciferase tagged HSV-1 F strain expressing luciferase (R8411 mutant) under the control of ICP27 promoter was obtained [Horsburgh B C, Hubinette M M, Tufaro F. Genetic manipulation of herpes simplex virus using bacterial artificial chromosomes. Methods Enzymol. 1999; 306:337-52]. […] The same samples after incubation of 48 h were used to assay for HSV-1 ICP0 and RACK1 protein expression (B of FIG. 5). Depletion of RACK1 by the compounds correlated with the depletion of the viral ICP0 protein confirming earlier results shown in B of FIG. 3.

IRES (β-Globin) = assay: Dual-luciferase reporter assay, β-Globin control construct; type: cell-based
Protocol: Dual-luciferase reporter constructs were generously provided from (Plank et al., 2013) and (Carvajal et al., 2016). In the plasmid constructs, renilla luciferase (Rluc) translation is cap-dependent, while the firefly luciferase (Flue) translation depends on HIV-1 IRES. The Fluc/Rluc ratio was measured in the presence or the absence of the compounds in HEK293T cells transfected with the dual-luciferase plasmid bearing either Beta-globin, HCV, HIV-1 gag, EMVC or HIV-1 ladder sequences. Cells get transfected with the plasmids using Lipofectamine 3000 Reagent, from Thermo Fisher Scientific. Then treated with RACK1 inhibitors and its analogs (SD-29, and SD-29-14) at different concentrations; 1 μM, 10 μM, and […]. Moreover, the cells were treated with Dimethyl sulfoxide (DMSO) as a vehicle control or left untreated. Luc-Pair™ Duo-Luciferase Assay Kit 2.0 Kit (Genecopoeia) was used to measure the luciferase activity. HEK293T cells were grown to reach no more than 90% confluent at the desired time of lysate preparation.
For measuring Fluc/Rluc ratio and bioluminescence, Both Renilla and Firefly substrates were added to the same wells containing respective plasmid constructs. After the described incubation period, luciferase activity was evaluated from bioluminescence images acquired by a Perkin Elmer IVIS Spectrum Imaging system immediately after adding luciferase substrates. The Spectral Un-mixing options integrated in the software was used to un-mix the respective luminescence from Renilla and Firefly. Bioluminescence intensity in each well was quantified in units of photons per second per centimeter squared per steradian (p/s/cm^2/sr) by drawing a polygonal region of interest over the signals in images using Living Image 3.0 software (Caliper Life Sciences).
Dual-luciferase reporter constructs were used to determine if the drugs targeting RACK1 affect IRES-mediated translation. Renilla luciferase (Rluc) translation dependent on cap and the firefly luciferase (Fluc) translation dependent on HIV-1 IRES were utilized. The Fluc/Rluc ratio was measured in the presence or the absence of the compounds in the HEK293T cells transfected with the dual-luciferase plasmid bearing the predicted IRES from HIV-1 driving a firefly luciferase reporter gene and a cap dependent renilla luciferase from the same construct. As a control, HCV IRES is used within the dual luciferase construct (instead of HIV-1) as a positive control as HCV is known to use IRES solely for translating its transcripts, while Beta-globin plasmid was used as a negative control. The dual-luciferase reporters, as used here, are previously reported where HIV-1 IRES were reported (Plank, T. D., J. T. Whitehurst, and J. S. Kieft, Cell type specificity and structural determinants of IRES activity from the 5′ leaders of different HIV-1 transcripts. Nucleic Acids Res, 2013. 41(13): p. 6698-714; Carvajal, F., et al., Structural domains within the HIV-1 mRNA and the ribosomal protein S25 influence cap-independent translation initiation. FEBS J, 2016. 283(13): p. 2508-27.) The cells were transfected with the plasmids using Lipofectamine, then treated with RACK1 inhibitors (SD-29 and SD29-14) at different concentrations (1, 10, and 50 μM). Control cells were treated with DMSO or left untreated. SV40 promoter produces a capped and poly-adenylated dicistronic message. Translation of the upstream cistron (renilla luciferase, RLUC) is cap dependent, whereas translation of the downstream cistron (firefly luciferase, FLUC) occurs cap independently. The dual luciferase constructs are depicted in FIG. 1A. IRES activity is measured by calculating the ratio of FLUC to RLUC light production (RLUs) (Plank et al., 2013).

Row | SMILES | HSV-1 proliferation (luciferase signal) (HSV1-Luc (R8411)) | efficacy compared with acyclovir (HSV1-Luc (R8411); HSV1-Luc, acyclovir 10 μM) | HSV-1 proliferation (luciferase signal) (HSV1-Luc (R8411); co-treatment of compound and virus, dose series) | concentration from which inhibition of HSV-1 (HSV1-Luc) proliferation starts (HSV1-Luc (R8411); in vitro, luciferase signal) | efficacy relative to SD-29 (HSV1-Luc (R8411); starting concentration, HSV-1 luciferase signal) | FLUC (IRES (β-Globin); 1 μM) | FLUC/RLUC Ratio (IRES (β-Globin); 1 μM) | FLUC (IRES (β-Globin); 10 μM) | FLUC/RLUC Ratio (IRES (β-Globin); 10 μM) | RLUC (IRES (β-Globin); 10 μM) | FLUC (IRES (β-Globin); 50 μM) | FLUC/RLUC Ratio (IRES (β-Globin); 50 μM) | RLUC (IRES (β-Globin); 50 μM) | RLUC (IRES (β-Globin); 1 μM)
1 | Nn1c(S)nnc1-c1cc(Cl)cc(Cl)c1 [SD29-14] | significantly inhibited the HSV-1 proliferation | slightly higher level | strong inhibition of HSV-1 proliferation in a dose dependent manner | 1 µM | 100 times | 2.21E+04 p/s/cm^2/sr | 0.067 ± 0.002 | 2.72E+04 p/s/cm^2/sr | 0.062 ± 0.003 | 4.39E+05 p/s/cm^2/sr | 1.74E+04 p/s/cm^2/sr | 0.067 ± 0.004 | 2.62E+05 p/s/cm^2/sr | –
2 | Nn1c(S)nnc1-c1ccc(F)cc1 [SD-29] | much less efficacy | – | – | – | – | 4.02E+04 p/s/cm^2/sr | 0.068 ± 0.002 | 3.52E+04 p/s/cm^2/sr | 0.074 ± 0.006 | 4.70E+05 p/s/cm^2/sr | 3.74E+04 p/s/cm^2/sr | 0.093 ± 0.004 | 4.01E+05 p/s/cm^2/sr | 5.82E+05 p/s/cm^2/sr
